Patent US7384931B2, “Constrained compounds as CGRP-receptor antagonists” (Bristol-Myers Squibb Company, priority 2004, dated 2008)

Tests used:
CGRP receptor [1] = target: T1, CGRP receptor (Homo sapiens, UniProt O60894+Q16602); test: Cyclic AMP functional antagonism assay in SK-N-MC cells; assay type: cell-based; parameters: SK—N-MC cells that endogenously express the human CGRP receptor; endogenous in cells; host or cells: SK-N-MC cells; details: inhibition of 0.3 nM CGRP-induced cyclic AMP formation, 15 min pre-incubation, read-out: cAMP Function IC50
Experimental: Cyclic AMP Functional Antagonism Assay. Antagonism of the compounds of invention was determined by measuring the formation of cyclic AMP (adenosine 3′5′-cyclic monophosphate) in SK—N-MC cells that endogenously express the human CGRP receptor. CGRP receptor complex is coupled with Gs protein and CGRP binding to this complex leads to the cyclic AMP production via Gs—dependent activation of an adenylate cyclase (Juaneda C et al., TiPS, 2000; 21:432-438; incorporated by reference herein). Consequently, CGRP receptor antagonists inhibit CGRP—induced cyclic AMP formation in SK—N-MC cells (Doods H et al., Br J Pharmacol, 2000; 129(3):420-423); incorporated by reference herein). For cyclic AMP measurements SK—N-MC cells were incubated with 0.3 nM CGRP alone or in the presence of various concentrations of the compounds of invention for 30 min at room temperature. Compounds of invention were pre-incubated with SK—N-MC cells for 15 min before the addition of CGRP to allow receptor occupancy (Edvinsson et al., Eur J Pharmacol, 2001, 415:39-44; incorporated by reference herein). Cyclic AMP was extracted using the lysis reagent and its concentration was determined by radioimmunoassay using RPA559 cAMP SPA Direct Screening Assay Kit (Amersham Pharmacia Biotech). IC50 values were calculated using Excel fit.

CGRP receptor [2] = target: T1, CGRP receptor; test: CGRP radioligand binding assay ([125I]-CGRP displacement, SK-N-MC homogenate); parameters: endogenous in cells; host or cells: SK-N-MC cells (homogenate/membrane pellet); details: displacement of [125I]-CGRP, room temperature 2 h
Summary of the method: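 SK-N-MC cell homogenate (5 μg/well) was incubated 2 h at room temperature with [125I]-CGRP (diluted to 60 pM before addition) in 50 mM Tris-Cl pH 7.5, 5 mM MgCl2, 0.005% Triton X-100 plus protease inhibitors. Bound radioactivity was collected by filtration; 1 μM beta-CGRP defined non-specific binding. IC50 is 50% radioligand displacement.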

T1 sequence (Q16602 23-461): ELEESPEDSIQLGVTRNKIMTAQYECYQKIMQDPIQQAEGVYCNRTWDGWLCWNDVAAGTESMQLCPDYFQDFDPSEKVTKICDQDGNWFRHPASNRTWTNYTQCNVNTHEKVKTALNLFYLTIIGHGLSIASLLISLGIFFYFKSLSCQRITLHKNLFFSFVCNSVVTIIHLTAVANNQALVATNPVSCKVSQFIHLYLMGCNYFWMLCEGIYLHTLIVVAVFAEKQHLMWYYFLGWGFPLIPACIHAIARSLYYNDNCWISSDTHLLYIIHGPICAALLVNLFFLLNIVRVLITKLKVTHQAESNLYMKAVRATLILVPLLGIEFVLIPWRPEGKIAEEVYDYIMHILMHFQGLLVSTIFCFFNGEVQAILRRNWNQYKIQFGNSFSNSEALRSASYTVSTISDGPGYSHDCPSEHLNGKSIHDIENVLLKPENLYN
T1 sequence (O60894 27-148): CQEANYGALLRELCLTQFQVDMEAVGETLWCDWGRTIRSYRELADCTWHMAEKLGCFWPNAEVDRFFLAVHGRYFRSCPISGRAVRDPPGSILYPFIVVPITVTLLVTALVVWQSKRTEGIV

Compound | IC50 (CGRP receptor [1]) | IC50 (CGRP receptor [2])
O=C(N[C@@H]1Cc2ccc3[nH]ncc3c2CN(Cc2ccccc2)C1=O)N1CCC(N2Cc3ccccc3NC2=O)CC1 [Example 1, 4-(2-Oxo-1,4-dihydro-2H-quinazolin-3-yl)-piperidine-1-carboxylic acid (9-benzyl-8-oxo-3,6,7,8,9,10-hexahydro-2,3,9-triaza-(R)-cyclohepta[e]inden-7-yl)-amide] | 10 to 100 nM | 10 to 100 nM
CC(C)(C)CN1C(=O)C(CC(=O)N2CCC(N3Cc4ccccc4NC3=O)CC2)Cc2cc3[nH]ncc3cc21 (stereo not shown) [Example 6, 5-Neopentyl-7-(2-oxo-2-(4-(2-oxo-1,2-dihydroquinazolin-3(4H)-yl)piperidin-1-yl)ethyl)-7,8-dihydro-1H-pyrazolo[3,4-g]quinolin-6(5H)-one] | 10 to 100 nM | 10 to 100 nM
C[C@@H](c1ccccc1)N1Cc2c(ccc3[nH]ncc23)C[C@@H](NC(=O)N2CCC(N3Cc4ccccc4NC3=O)CC2)C1=O [Example 10, 4-(2-Oxo-1,4-dihydro-2H-quinazolin-3-yl)-piperidine-1-carboxylic acid [8-oxo-9-(1-(S)-phenyl-ethyl)-3,6,7,8,9,10-hexahydro-2,3,9-triaza-(R)-cyclohepta[e]inden-7-yl]-amide] | 10 to 100 nM | 10 to 100 nM
C[C@H](c1ccccc1)N1Cc2c(ccc3[nH]ncc23)C[C@@H](NC(=O)N2CCC(N3Cc4ccccc4NC3=O)CC2)C1=O [Example 11, 4-(2-Oxo-1,4-dihydro-2H-quinazolin-3-yl)-piperidine-1-carboxylic acid [8-oxo-9-(1-(R)-phenyl-ethyl)-3,6,7,8,9,10-hexahydro-2,3,9-triaza-(R)-cyclohepta[e]inden-7-yl]-amide] | 10 to 100 nM | 10 to 100 nM
Cc1cc2c(c3cn[nH]c13)CN(CC(C)(C)C)C(=O)[C@H](CC(=O)N1CCC(c3cc4cccc(F)c4[nH]c3=O)CC1)C2 [Example 101, (S)-7-(2-(4-(8-fluoro-2-oxo-1,2-dihydroquinolin-3-yl)piperidin-1-yl)-2-oxoethyl)-4-methyl-9-neopentyl-6,7,9,10-tetrahydroazepino[3,4-e]indazol-8(3H)-one] | – | 10 to 100 nM
Cc1cc2c(c3cn[nH]c13)CN(CC(F)(F)F)C(=O)[C@H](CC(=O)N1CCC(c3cc4ccccc4[nH]c3=O)CC1)C2 [Example 102, (S)-4-methyl-7-(2-oxo-2-(4-(2-oxo-1,2-dihydroquinolin-3-yl)piperidin-1-yl)ethyl)-9-(2,2,2-trifluoroethyl)-6,7,9,10-tetrahydroazepino[3,4-e]indazol-8(3H)-one] | – | 0.1 to 10 nM
Cc1cc2c(c3cn[nH]c13)CN(CC(F)(F)F)C(=O)[C@H](CC(=O)N1CCC(c3cc4cccc(F)c4[nH]c3=O)CC1)C2 [Example 103, (S)-7-(2-(4-(8-fluoro-2-oxo-1,2-dihydroquinolin-3-yl)piperidin-1-yl)-2-oxoethyl)-4-methyl-9-(2,2,2-trifluoroethyl)-6,7,9,10-tetrahydroazepino[3,4-e]indazol-8(3H)-one] | – | 10 to 100 nM
CC(C)c1cc2c(c3cn[nH]c13)CN(CC(C)(C)C)C(=O)[C@H](CC(=O)N1CCC(c3cc4ccccc4[nH]c3=O)CC1)C2 [Example 104, (S)-4-isopropyl-9-neopentyl-7-(2-oxo-2-(4-(2-oxo-1,2-dihydroquinolin-3-yl)piperidin-1-yl)ethyl)-6,7,9,10-tetrahydroazepino[3,4-e]indazol-8(3H)-one] | – | 10 to 100 nM
CC(C)c1cc2c(c3cn[nH]c13)CN(CC(C)(C)C)C(=O)[C@H](CC(=O)N1CCC(c3cc4cccc(F)c4[nH]c3=O)CC1)C2 [Example 105, (S)-7-(2-(4-(8-fluoro-2-oxo-1,2-dihydroquinolin-3-yl)piperidin-1-yl)-2-oxoethyl)-4-isopropyl-9-neopentyl-6,7,9,10-tetrahydroazepino[3,4-e]indazol-8(3H)-one] | – | 10 to 100 nM
CC(C)c1cc2c(c3cn[nH]c13)CN(CC(F)(F)F)C(=O)[C@H](CC(=O)N1CCC(c3cc4ccccc4[nH]c3=O)CC1)C2 [Example 106, (S)-4-isopropyl-7-(2-oxo-2-(4-(2-oxo-1,2-dihydroquinolin-3-yl)piperidin-1-yl)ethyl)-9-(2,2,2-trifluoroethyl)-6,7,9,10-tetrahydroazepino[3,4-e]indazol-8(3H)-one] | – | 10 to 100 nM
CC(C)c1cc2c(c3cn[nH]c13)CN(CC(F)(F)F)C(=O)[C@H](CC(=O)N1CCC(c3cc4cccc(F)c4[nH]c3=O)CC1)C2 [Example 107, (S)-7-(2-(4-(8-fluoro-2-oxo-1,2-dihydroquinolin-3-yl)piperidin-1-yl)-2-oxoethyl)-4-isopropyl-9-(2,2,2-trifluoroethyl)-6,7,9,10-tetrahydroazepino[3,4-e]indazol-8(3H)-one] | – | 100 to 1000 nM
C=C(C)c1cc2c(c3cn[nH]c13)CN(CC(F)(F)F)C(=O)[C@H](CC(=O)N1CCC(c3cc4ccccc4[nH]c3=O)CC1)C2 [Example 108, (S)-7-(2-oxo-2-(4-(2-oxo-1,2-dihydroquinolin-3-yl)piperidin-1-yl)ethyl)-4-(prop-1-en-2-yl)-9-(2,2,2-trifluoroethyl)-6,7,9,10-tetrahydroazepino[3,4-e]indazol-8(3H)-one] | – | 10 to 100 nM
C=C(C)c1cc2c(c3cn[nH]c13)CN(CC(F)(F)F)C(=O)[C@H](CC(=O)N1CCC(c3cc4cccc(F)c4[nH]c3=O)CC1)C2 [Example 109, (S)-7-(2-(4-(8-fluoro-2-oxo-1,2-dihydroquinolin-3-yl)piperidin-1-yl)-2-oxoethyl)-4-(prop-1-en-2-yl)-9-(2,2,2-trifluoroethyl)-6,7,9,10-tetrahydroazepino[3,4-e]indazol-8(3H)-one] | – | 100 to 1000 nM
O=C(C[C@@H]1Cc2cc(Br)c3[nH]ncc3c2CN(CC2CC2)C1=O)N1CCC(c2cc3cccc(F)c3[nH]c2=O)CC1 [Example 112, (S)-4-bromo-9-(cyclopropylmethyl)-7-(2-(4-(8-fluoro-2-oxo-1,2-dihydroquinolin-3-yl)piperidin-1-yl)-2-oxoethyl)-6,7,9,10-tetrahydroazepino[3,4-e]indazol-8(3H)-one] | – | 10 to 100 nM
COCCN1Cc2c(cc(Br)c3[nH]ncc23)C[C@@H](CC(=O)N2CCC(c3cc4ccccc4[nH]c3=O)CC2)C1=O [Example 113, (S)-4-bromo-9-(2-methoxyethyl)-7-(2-oxo-2-(4-(2-oxo-1,2-dihydroquinolin-3-yl)piperidin-1-yl)ethyl)-6,7,9,10-tetrahydroazepino[3,4-e]indazol-8(3H)-one] | – | 0.1 to 10 nM
CC(C)(C)CN1Cc2c(cc(Cl)c3[nH]ncc23)C[C@@H](CC(=O)N2CCC(c3cc4ccc(Cl)cc4[nH]c3=O)CC2)C1=O [Example 116] | – | 0.1 to 10 nM
CC(C)(C)CN1Cc2c(cc(Cl)c3[nH]ncc23)C[C@@H](CC(=O)N2CCC(c3cc4cccc(Cl)c4[nH]c3=O)CC2)C1=O [Example 117] | – | 100 to 1000 nM
CC(C)(C)CN1Cc2c(cc(Cl)c3[nH]ncc23)C[C@@H](CC(=O)N2CCC(c3cc4c(F)cccc4[nH]c3=O)CC2)C1=O [Example 118] | – | 10 to 100 nM
CC(C)(C)CN1Cc2c(cc(Cl)c3[nH]ncc23)C[C@@H](CC(=O)N2CCC(c3cc4ccc(F)nc4[nH]c3=O)CC2)C1=O [Example 119] | – | > 1000 nM
CC(C)(C)CN1Cc2c(cc(Cl)c3[nH]ncc23)C[C@@H](CC(=O)N2CCC(c3cc4ccc(F)cc4[nH]c3=O)CC2)C1=O [Example 120] | – | 0.1 to 10 nM
(7S)-9-Benzyl-7-(2-oxo-2-(4-(2-oxo-1,2,3,4-tetrahydroquinolin-3-yl)piperazin-1-yl)ethyl)-6,7,9,10-tetrahydroazepino[3,4-e]indazol-8(3H)-one [Example 58] | – | 100 to 1000 nM
